# Several values for one entry are separate records, joined by “and”; a condition that tells them apart may be missing. Identical values can stand only once. Records with an inconclusive call do not appear.
# Tested on: BDF1 mice, colon carcinoma 38 sc, T/C %
# Test: NCI In Vivo Anticancer Drug Screen. Data for tumor model Colon Carcinoma 38 (subcutaneous) in B6D2F1 (BDF1) mice
# Conditions: endpoint: median tumor weight (est.), higher = larger tumour
# Procedure, shortened: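 Ratio of survival or tumor size, compound-treated animals relative to vehicle controls, in tumor-bearing mice.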
# [1] = dose: 12.5 mg/kg/injection, schedule: Q07DX002 (ip), vehicle: saline with Tween-80
# [2] = dose: 25.0 mg/kg/injection, schedule: Q07DX002 (ip), vehicle: saline with Tween-80
# [3] = dose: 50.0 mg/kg/injection, schedule: Q07DX002 (ip), vehicle: saline with Tween-80
# [4] = dose: 100.0 mg/kg/injection, schedule: Q07DX002 (ip), vehicle: saline with Tween-80
# [5] = dose: 200.0 mg/kg/injection, schedule: Q07DX002 (ip), vehicle: saline with Tween-80
# [6] = dose: 100.0 mg/kg/injection, schedule: Q07DX002 (ip), vehicle: saline
# [7] = dose: 200.0 mg/kg/injection, schedule: Q07DX002 (ip), vehicle: saline
# [8] = dose: 400.0 mg/kg/injection, schedule: Q07DX002 (ip), vehicle: saline
# [9] = dose: 400.0 mg/kg/injection, schedule: Q07DX002 (ip), vehicle: saline with Tween-80
# [10] = dose: 12.5 mg/kg/injection, schedule: Q07DX002 (ip), vehicle: saline
# [11] = dose: 12.5 mg/kg/injection, schedule: Q07DX002 (ip), vehicle: Klucel (hydroxypropylcellulose) (HPC)
# [12] = dose: 25.0 mg/kg/injection, schedule: Q07DX002 (ip), vehicle: Klucel (hydroxypropylcellulose) (HPC)
# [13] = dose: 50.0 mg/kg/injection, schedule: Q07DX002 (ip), vehicle: Klucel (hydroxypropylcellulose) (HPC)
# [14] = dose: 100.0 mg/kg/injection, schedule: Q07DX002 (ip), vehicle: Klucel (hydroxypropylcellulose) (HPC)
# [15] = dose: 200.0 mg/kg/injection, schedule: Q07DX002 (ip), vehicle: Klucel (hydroxypropylcellulose) (HPC)
# [16] = dose: 400.0 mg/kg/injection, schedule: Q07DX002 (ip), vehicle: Klucel (hydroxypropylcellulose) (HPC)
# [17] = dose: 800.0 mg/kg/injection, schedule: Q07DX002 (ip), vehicle: Klucel (hydroxypropylcellulose) (HPC)
smiles,measurement,setting,value
C[CH2][Ge]([CH2]C)[CH2]C.C[CH2][Ge]([CH2]C)[CH2]C.C[CH2][Ge]([CH2]C)[O][Ge]([CH2]C)[CH2]C,T/C,[1],80 % of control
same,T/C,[2],90 % of control
same,T/C,[3],87 % of control
same,T/C,[4],68 % of control
same,T/C,[5],81 % of control and 95 % of control
same,T/C,"dose: 800.0 mg/kg/injection, schedule: Q07DX002 (ip), vehicle: saline with Tween-80",90 % of control
CCN(CC)C(C)(C)C(=O)/C=C/c1ccccc1,T/C,"dose: 31.25 mg/kg/injection, schedule: Q07DX002 (ip), vehicle: saline with Tween-80",68 % of control
same,T/C,"dose: 62.5 mg/kg/injection, schedule: Q07DX002 (ip), vehicle: saline with Tween-80",39 % of control
same,T/C,"dose: 125.0 mg/kg/injection, schedule: Q07DX002 (ip), vehicle: saline with Tween-80",78 % of control
same,T/C,"dose: 250.0 mg/kg/injection, schedule: Q07DX002 (ip), vehicle: saline with Tween-80",34 % of control
O=C1NC(O)CCN1C1OC(CO)C(O)C1O (centres undefined),T/C,[6],153 % of control
same,T/C,"dose: 100.0 mg/kg/injection, schedule: Q07DX003 (ip), vehicle: saline",94 % of control
same,T/C,[7],192 % of control
same,T/C,"dose: 200.0 mg/kg/injection, schedule: Q07DX003 (ip), vehicle: saline",91 % of control
same,T/C,[8],89 % of control
same,T/C,"dose: 400.0 mg/kg/injection, schedule: Q07DX003 (ip), vehicle: saline",157 % of control
same,T/C,"dose: 800.0 mg/kg/injection, schedule: Q07DX002 (ip), vehicle: saline",113 % of control
O=C(O)c1c2c(nc3ccccc13)Cc1ccccc1-2,T/C,"dose: 12.5 mg/kg/injection, schedule: Q07DX002 (ip), vehicle: water",121 % of control and 100 % of control
same,T/C,"dose: 100.0 mg/kg/injection, schedule: Q07DX002 (ip), vehicle: water",99 % of control
same,T/C,"dose: 200.0 mg/kg/injection, schedule: Q07DX002 (ip), vehicle: water",62 % of control
CCC(=O)Sc1ccccc1C(=O)Nc1ccc(Cl)cc1,T/C,[3],120 % of control
same,T/C,[4],104 % of control
same,T/C,[5],114 % of control
same,T/C,[9],59 % of control
CC(/C=C/c1ccccc1)=Nc1ccccc1,T/C,[2],40 % of control
same,T/C,[3],110 % of control
same,T/C,[4],92 % of control
same,T/C,[9],185 % of control
C1CN2CCC1CC2,T/C,"dose: 3.12 mg/kg/injection, schedule: Q07DX003 (ip), vehicle: saline",101 % of control
same,T/C,"dose: 6.25 mg/kg/injection, schedule: Q07DX003 (ip), vehicle: saline",78 % of control
CCCNC1=C(C)C(=O)C2=C(C1=O)[C@H](COC(N)=O)[C@]1(OC)[C@@H]3N[C@@H]3CN21,T/C,"dose: 0.78 mg/kg/injection, schedule: Q07DX002 (ip), vehicle: saline",72 % of control
same,T/C,"dose: 1.56 mg/kg/injection, schedule: Q07DX002 (ip), vehicle: saline",85 % of control
same,T/C,"dose: 3.12 mg/kg/injection, schedule: Q07DX002 (ip), vehicle: saline",84 % of control
same,T/C,"dose: 6.0 mg/kg/injection, schedule: Q07DX002 (ip), vehicle: suspension in saline",84 % of control
same,T/C,"dose: 6.25 mg/kg/injection, schedule: Q07DX002 (ip), vehicle: saline",25 % of control
same,T/C,"dose: 12.0 mg/kg/injection, schedule: Q07DX002 (ip), vehicle: suspension in saline",34 % of control
same,T/C,[10],6 % of control
CC(=O)Nc1ccc(S(=O)(=O)CO)cc1,T/C,[1],116 % of control and 97 % of control
same,T/C,[2],84 % of control and 107 % of control
same,T/C,[3],89 % of control
same,T/C,[4],88 % of control and 91 % of control
same,T/C,[5],89 % of control and 97 % of control
COc1ccc(C[C@H](N)C(=O)NC2C(CO)OC(n3cnc4c(N(C)C)ncnc43)C2O)cc1 (some centres undefined),T/C,[10],81 % of control
same,T/C,"dose: 24.0 mg/kg/injection, schedule: Q07DX002 (ip), vehicle: saline",79 % of control and 91 % of control
same,T/C,"dose: 25.0 mg/kg/injection, schedule: Q07DX002 (ip), vehicle: saline",86 % of control
same,T/C,"dose: 48.0 mg/kg/injection, schedule: Q07DX002 (ip), vehicle: saline",80 % of control and 82 % of control
same,T/C,"dose: 50.0 mg/kg/injection, schedule: Q07DX002 (ip), vehicle: saline",92 % of control and 106 % of control
same,T/C,"dose: 96.0 mg/kg/injection, schedule: Q07DX002 (ip), vehicle: saline",91 % of control and 108 % of control
same,T/C,[6],89 % of control and 94 % of control
same,T/C,"dose: 192.0 mg/kg/injection, schedule: Q07DX002 (ip), vehicle: saline",72 % of control and 93 % of control
same,T/C,[7],55 % of control and 64 % of control
same,T/C,"dose: 384.0 mg/kg/injection, schedule: Q07DX002 (ip), vehicle: saline",64 % of control and 84 % of control
same,T/C,[8],21 % of control
COc1ccc(Cl)[n+]([O-])n1,T/C,"dose: 6.25 mg/kg/injection, schedule: Q07DX002 (ip), vehicle: Klucel (hydroxypropylcellulose) (HPC)",83 % of control
same,T/C,[11],87 % of control
same,T/C,[12],89 % of control
same,T/C,[13],81 % of control
same,T/C,[14],90 % of control
CN=C(N)N/N=C(\C)c1ccc2c(c1)Cc1ccccc1-2,T/C,[1],95 % of control and 98 % of control
same,T/C,[2],63 % of control and 85 % of control
same,T/C,[3],83 % of control and 86 % of control
same,T/C,[4],81 % of control and 93 % of control
CC1(C)CC(=O)C(CSC(=O)c2ccccc2)C(=O)C1,T/C,[11],120 % of control and 104 % of control
same,T/C,[12],113 % of control and 104 % of control
same,T/C,[14],88 % of control
C=C(C)/C([O-])=N/[N+](C)(C)CC(O)CCCCCCCCCCCC (centres undefined),T/C,"dose: 25.0 mg/kg/injection, schedule: Q01DX001 (ip), vehicle: saline",105 % of control
same,T/C,"dose: 50.0 mg/kg/injection, schedule: Q01DX001 (ip), vehicle: saline",100 % of control
same,T/C,"dose: 100.0 mg/kg/injection, schedule: Q01DX001 (ip), vehicle: saline",109 % of control
same,T/C,"dose: 200.0 mg/kg/injection, schedule: Q01DX001 (ip), vehicle: saline",108 % of control
same,T/C,"dose: 400.0 mg/kg/injection, schedule: Q01DX001 (ip), vehicle: saline",156 % of control
COC(=O)Nc1cccc(-c2nc3ccc(NC(=O)OC)cc3c(=O)n2-c2ccccc2)c1,T/C,"dose: 32.0 mg/kg/injection, schedule: Q07DX003 (ip), vehicle: Klucel (hydroxypropylcellulose) (HPC)",78 % of control
same,T/C,"dose: 64.0 mg/kg/injection, schedule: Q07DX003 (ip), vehicle: Klucel (hydroxypropylcellulose) (HPC)",70 % of control
same,T/C,"dose: 128.0 mg/kg/injection, schedule: Q07DX003 (ip), vehicle: Klucel (hydroxypropylcellulose) (HPC)",87 % of control
same,T/C,"dose: 256.0 mg/kg/injection, schedule: Q07DX003 (ip), vehicle: Klucel (hydroxypropylcellulose) (HPC)",30 % of control
O=C1N[C@H]2[C@H](CS[C@H]2CCCCC(=O)N(CCP(c2ccccc2)c2ccccc2)CCP(c2ccccc2)c2ccccc2)N1,T/C,[13],71 % of control
same,T/C,[14],71 % of control
same,T/C,[15],91 % of control
same,T/C,[16],96 % of control
same,T/C,[17],89 % of control
Clc1cc(Cl)c(C[N+]23CN4CN(CN(C4)C2)C3)cc1Cl,T/C,[1],80 % of control and 90 % of control
same,T/C,[2],118 % of control
Nc1cc2c(c[n+](CCCCCCCC[n+]3cc4c5ccccc5c(N)cc4c4ccccc43)c3ccccc23)c2ccccc12,T/C,"dose: 7.5 mg/kg/injection, schedule: Q07DX002 (ip), vehicle: water",108 % of control
same,T/C,"dose: 15.0 mg/kg/injection, schedule: Q07DX002 (ip), vehicle: water",82 % of control
same,T/C,"dose: 30.0 mg/kg/injection, schedule: Q07DX002 (ip), vehicle: water",94 % of control
same,T/C,"dose: 60.0 mg/kg/injection, schedule: Q07DX002 (ip), vehicle: water",53 % of control
c1ccc2c(c1)nnn1c3cnccc3nc21,T/C,"dose: 3.12 mg/kg/injection, schedule: Q07DX002 (ip), vehicle: saline with Tween-80",63 % of control and 88 % of control
same,T/C,[2],82 % of control and 85 % of control
COc1cc(C)c(C2NC(=O)c3ccccc3N2)cc1C (centres undefined),T/C,[13],121 % of control
same,T/C,[14],78 % of control
same,T/C,[16],117 % of control
same,T/C,[17],108 % of control
O=C(CC(=O)C(F)(F)F)c1csc2ccccc12,T/C,[11],110 % of control and 90 % of control
same,T/C,[13],76 % of control
same,T/C,[15],62 % of control

# Reference: PubChem BioAssay AID212 (DTP/NCI, 2004)
